Molecules are shown by their SMILES.

One assay deals with T1, GDP-loaded K-Ras (1-169) G12D, C51S, C80L, C118S (Homo sapiens, UniProt P01116, C118S/C51S/C80L/G12D).
T1 construct: GDP-loaded K-Ras (1-169) G12D, C51S, C80L, C118S
Put plainly: K-Ras G12D(GDP) cross-linking assay (mass spectrometry, percent covalent modification). It counts as binding. The conditions noted are these: at 24 hours, room temperature. The protocol:
Protocol: K-Ras G12D(GDP) Cross-Linking Assay
Note: While the Following Protocol Outlines the Procedure for K-Ras G12D(GDP), a Person of Skill in the Art May Substitute Other Ras Proteins, and May Also Substitute a Non-Hydrolyzable GTP Analog for GDP to Study GTP Bound Ras Protein.
GDP-loaded K-Ras (1-169) G12D, C51S, C80L, C118S and GDP-loaded K-Ras (1-169) C51S, C80L, C118S were adjusted to 50 μM in K-Ras assay buffer (12.5 mM HEPES, 75 mM NaCl and 1 mM MgCl2 at pH 7.4). A 5 μL aliquot of each protein solution was added to each well of a 96-well microplate containing 40 μL of assay buffer. Initial compound stocks were prepared in DMSO at 100 times their final assay concentration. Compounds were then diluted 10-fold into K-Ras assay buffer to 10 times their final concentration. A 5 μL aliquot of each diluted compound solution was added to each protein solution in the 96-well microplate to initiate the reaction, which then proceeded at room temperature. Typical final compound concentrations were 2, 10, and 25 μM. At each time point, the reactions were analyzed immediately or quenched with 5 μL of a 5% formic acid solution and kept at 4° C. until analysis. Typical assay endpoints were 1, 6 and 24 h.
Data collection took place on an Agilent 6230 TOF Mass Spectrometer. Complete reactions were injected onto a C4 reverse-phase column to separate protein from buffer components prior to entering the mass spectrometer. The proteins were eluted from the column by increasing acetonitrile fraction in the mobile phase and fed directly into the mass analyzer. Initial analysis of raw data took place on Agilent MassHunter BioConfirm software and consisted of deconvolution of multiple protein charge states with the maximum entropy algorithm, with a mass step of 1 Da. The heights of all deconvoluted protein masses were exported for further data analysis. The percent modification of each protein was then determined by calculating the peak height of the covalently modified K-Ras species as a percentage of the sum total of K-Ras protein peak height.
Take `Oc1cc(-c2ncc3c(N4C[C@H]5CC[C@@H](C4)N5C[C@H]4CN4)nc(OC[C@@]45CCCN4C[C@H](F)C5)nc3c2F)c2c(F)cccc2c1` [Compound B3, 4-(4-((1R,5S)-8-(((R)-aziridin-2-yl)methyl)-3,8-diazabicyclo[3.2.1]octan-3-yl)-8-fluoro-2-(((2R,7aS)-2-fluorotetrahydro-1H-pyrrolizin-7a(5H)-yl)methoxy)pyrido[4,3-d]pyrimidin-7-yl)-5-fluoronaphthalen-2-ol]: the “cross-linking to K-Ras G12D” value was “greater than 0%”.

Still in this assay, the particulars now being: at times up to 24 hours, room temperature.
Consider `O=C([C@@H]1CN1)N1C=C(c2ncc3c(N4C[C@H]5CC[C@@H](C4)N5)nc(OC[C@@]45CCCN4C[C@H](F)C5)nc3c2F)c2c(F)cccc2C1` [Compound B24, (4-(4-((1R,5S)-3,8-diazabicyclo[3.2.1]octan-3-yl)-8-fluoro-2-(((2R,7aS)-2-fluorotetrahydro-1H-pyrrolizin-7a(5H)-yl)methoxy)pyrido[4,3-d]pyrimidin-7-yl)-5-fluoroisoquinolin-2(1H)-yl)((S)-aziridin-2-yl)methanone], for which the “cross-linking to K-Ras G12D” value is on record as “no cross-linking”.

For `Oc1cc(-c2ncc3c(N4C[C@H]5CC[C@@H](C4)N5C[C@@H]4CN4)nc(OC[C@@]45CCCN4C[C@H](F)C5)nc3c2F)c2c(F)cccc2c1` [Compound B4, 4-(4-((1R,5S)-8-(((S)-aziridin-2-yl)methyl)-3,8-diazabicyclo[3.2.1]octan-3-yl)-8-fluoro-2-(((2R,7aS)-2-fluorotetrahydro-1H-pyrrolizin-7a(5H)-yl)methoxy)pyrido[4,3-d]pyrimidin-7-yl)-5-fluoronaphthalen-2-ol], the “cross-linking to K-Ras G12D” value is on record as “no cross-linking”.

Consider `O=C([C@@H]1CN1)N1[C@@H]2CC[C@H]1CN(c1nc(OC[C@@]34CCCN3C[C@H](F)C4)nc3c(F)c(-c4cc(O)cc5cccc(F)c45)ncc13)C2` [Compound B2, ((S)-aziridin-2-yl)((1R,5S)-3-(8-fluoro-7-(8-fluoro-3-hydroxynaphthalen-1-yl)-2-(((2R,7aS)-2-fluorotetrahydro-1H-pyrrolizin-7a(5H)-yl)methoxy)pyrido[4,3-d]pyrimidin-4-yl)-3,8-diazabicyclo[3.2.1]octan-8-yl)methanone], for which the “cross-linking to K-Ras G12D” value is reported as “no cross-linking”.

For `O=C([C@H]1CN1)N1[C@@H]2CC[C@H]1CN(c1nc(OC[C@@]34CCCN3C[C@H](F)C4)nc3c(F)c(-c4cc(O)cc5cccc(F)c45)ncc13)C2` [Compound B1, ((R)-aziridin-2-yl)((1R,5S)-3-(8-fluoro-7-(8-fluoro-3-hydroxynaphthalen-1-yl)-2-(((2R,7aS)-2-fluorotetrahydro-1H-pyrrolizin-7a(5H)-yl)methoxy)pyrido[4,3-d]pyrimidin-4-yl)-3,8-diazabicyclo[3.2.1]octan-8-yl)methanone], the “cross-linking to K-Ras G12D” value is “no cross-linking”.

On to `O=C([C@H]1CN1)N1C=C(c2ncc3c(N4C[C@H]5CC[C@@H](C4)N5)nc(OC[C@@]45CCCN4C[C@H](F)C5)nc3c2F)c2c(F)cccc2C1` [Compound B23, (4-(4-((1R,5S)-3,8-diazabicyclo[3.2.1]octan-3-yl)-8-fluoro-2-(((2R,7aS)-2-fluorotetrahydro-1H-pyrrolizin-7a(5H)-yl)methoxy)pyrido[4,3-d]pyrimidin-7-yl)-5-fluoroisoquinolin-2(1H)-yl)((R)-aziridin-2-yl)methanone], for which the “cross-linking to K-Ras G12D” value is listed as “no cross-linking”.

For the origin of these results see patent US20240262847A1, “COVALENT RAS INHIBITORS AND USES THEREOF” (Revolution Medicines, Inc., priority 2021, published 2024).
